These results are taken from article PMC10552397 (Cell Communication and Signaling : CCS, 2023).

Holding throughout (type): cell-based
Assay [1] deals with HeLa wt cells. Put plainly: BFA washout assay (Golgi reassembly, TGN46 and B4GALT1 staining). The following applies: 120 min washout. How it is done:
For BFA washout assays, HeLa wt cells were seeded on glass coverslips in 24-well plates. […] After 24 h, the treatment medium was removed, cells were washed once with DPBS and then treated with 5 µg/mL BFA or 0.1% DMSO as a control for 2 h. Cells were then washed with DPBS four times and incubated with fresh culture medium for 0/15/30/45/60/120 min. After the respective BFA washout time, cells were fixed in ice-cold methanol for 15 min on ice, washed three times with DPBS and blocked in 3% BSA (Roth, Karlsruhe, Germany, #8076) overnight. Samples were incubated with primary antibodies diluted in 3% BSA for 2 h and then washed three times with DPBS, incubated with the appropriate secondary antibodies diluted in 3% BSA for 30 min and washed three times with DPBS. Afterwards, cells were embedded in ProLong Glass Antifade Mountant (Thermo Fisher Scientific, Waltham, MA, USA, #P36980) containing 1 µg/mL DAPI (Roth, Karlsruhe, Germany, #6335.1). Images were recorded with an Axio Observer 7 fluorescence microscope (Carl Zeiss Microscopy, Oberkochen, Germany) using a 40x/1,4 Oil DIC M27 Plan-Apochromat objective (Carl Zeiss Microscopy, Oberkochen, Germany) and an ApoTome 2 (Carl Zeiss Microscopy, Oberkochen, Germany).

For assay [2], the system named is HeLa wt cells. The experiment in a line: Immunofluorescence of LC3 and LAMP1. The following applies: 2 h; prodigiosin 100 nM, BafA1 10 nM. How it is done:
For immunofluorescence microscopy, HeLa cells were seeded on glass coverslips in 24-well plates. After treatment, cells were fixed in 4% paraformaldehyde for 15 min on ice, quenched with 50 mM NH4Cl for 15 min and permeabilized with 50 µg/mL digitonin (Sigma-Aldrich, St. Louis, MO, USA, #D141) for 5 min. Fixed samples were blocked with 3% BSA (Roth, Karlsruhe, Germany, #8076) for 30 min or overnight and incubated with primary antibodies diluted in 3% BSA for 2 h. Samples were then washed three times with DPBS, incubated with the appropriate secondary antibodies diluted in 3% BSA for 30 min and washed three times with DPBS. Afterwards, cells were embedded in ProLong Glass Antifade Mountant (Thermo Fisher Scientific, Waltham, MA, USA, #P36980) containing 1 µg/mL DAPI (Roth, Karlsruhe, Germany, #6335.1). Images were recorded with an Axio Observer 7 fluorescence microscope (Carl Zeiss Microscopy, Oberkochen, Germany) using a 40x/1,4 Oil DIC M27 Plan-Apochromat objective (Carl Zeiss Microscopy, Oberkochen, Germany) and an ApoTome 2 (Carl Zeiss Microscopy, Oberkochen, Germany).

Assay [3] concerns HeLa GRASP55 KO cells. Put plainly: Secretome analysis by data-independent mass spectrometry. The following applies: 100 nM, 24 h, serum-free, not apparent in wt. How it is done:
For the preparation of secretomes, 2*10^5 HeLa wt or HeLa GRASP55 KO cells per well were seeded in a 6-well plate (n = 5 replicates for 4 different groups). […] After incubation, the medium was collected, centrifuged at 1,000 × g and 4 °C for 10 min and filtered through a 0.2 µm Acrodisc syringe filter (VWR, Radnor, PA, USA, #514–4131). After adding protease inhibitor cocktail (Roche, Basel, Switzerland, #5,892,791,001), the samples were snap frozen in liquid nitrogen and stored at -80 °C. Proteins were prepared for mass spectrometric analysis by a modified single-pot, solid-phase-enhance sample preparation (SP3) method. […] Finally, the sample was reconstituted in 0.1% trifluoroacetic acid and half of the sample analyzed by mass spectrometry. […]
Only proteins identified with at least two different peptides and 4 valid intensity values (MaxLFQ) in at least one experimental group were considered for further analysis. […] Annotation dependent significant abundance changes of protein groups were analysed using 1D and 2D annotation enrichment and respective differences visualized with split-violin plots with OriginPro 2020b.

Turning to `CCCCCC1=C/C(=C/c2[nH]c(-c3ccc[nH]3)cc2OC)N=C1C` [Prodigiosin, prodigiosin], in assay [1] (10 nM pre-treatment 24 h), the “Golgi reassembly during BFA washout” value is “fully reformed Golgi complex”. In addition, the “Golgi reassembly during BFA washout” value in assay [1] (100 nM pre-treatment 24 h) is “severely disturbed Golgi reassembly”. In assay [2], the LC3-positive structures result is reported as “increase”; the “co-localization of LC3- and LAMP1-positive structures” value is “highly significant increase”. Also, the “abundance of signal peptide (SP) proteins in the secretome” value in assay [3] is reported as “higher abundances”.
